From patent publication US20230041563A1, “N-(1,3,4-OXADIAZOL-2-YL)ARYLCARBOXAMIDES OR SALTS THEREOF, PREPARATION METHODS, HERBICIDAL COMPOSITIONS AND USES THEREOF” (priority 2018, published 2023)
Like-named read-outs stand apart in the source and are kept apart here.

Tested on: weeds
Test: Actual control effects and combined effects of mixtures of active ingredients (i) and (ii), stem-leaf treatment, Gowing method
Type: in vivo
Details: 20 days; for pest or weed control at 450 g/ha: (ii) 30 g a.i./mu
Description: According to the actual control effect and the property of the herbicides, the balance of the formula and other factors, the optimal ratio was determined. In the calculation formula: X represents the fresh weight inhibition rate when the active ingredient (i) is used in an amount of P; and Y represents the fresh weight inhibition rate when the active ingredient (ii) is used in an amount of Q. The statistical results are shown in Tables 9-11 below.

[1] = Monochoria vaginalis, (ii) 3 g a.i./mu
[2] = Monochoria vaginalis, (ii) 3 g a.i./mu, stem-leaf treatment
[3] = 480 h, Echinochloa phyllopogon, (ii) 3 g a.i./mu, stem-leaf treatment, read-out: Control effect of (ii) alone at corresponding dose
[4] = 480 h, Echinochloa phyllopogon, (ii) 15 g a.i./mu, read-out: Control effect of (ii) alone at corresponding dose
[5] = Echinochloa phyllopogon, (ii) 3 g a.i./mu
[6] = Monochoria vaginalis, (ii) 1 g a.i./mu
[7] = Pontederia vaginalis, 480 h, Monochoria vaginalis, (ii) 1 g a.i./mu, stem-leaf treatment, read-out: Control effect of (ii) alone at corresponding dose
[8] = 480 h, Echinochloa phyllopogon, (ii) 0.6 g a.i./mu, stem-leaf treatment, read-out: Control effect of (ii) alone at corresponding dose
[9] = 480 h, Echinochloa phyllopogon, (ii) 15 g a.i./mu, stem-leaf treatment, read-out: Control effect of (ii) alone at corresponding dose
[10] = Echinochloa phyllopogon, (ii) 0.6 g a.i./mu
[11] = Echinochloa phyllopogon, (ii) 15 g a.i./mu
[12] = Cyperus difformis, (ii) 1 g a.i./mu
[13] = Leptochloa chinensis, (ii) 3 g a.i./mu

Compound: Sanzuohuangcaotong
- Control effect of (ii) alone at corresponding dose [1]: 21.5%
- Control effect of (ii) alone at corresponding dose [2]: 21.5%
- Control effect of (ii) alone at corresponding dose (Monochoria vaginalis, (ii) 6 g a.i./mu): 40.1%

Compound: Cc1ccccc1CO[C@@H]1C[C@@]2(C(C)C)CC[C@]1(C)O2 (racemic) [Cinmethylin]
- pest or weed control at 45 g/ha [3]: 13.2%
- pest or weed control at […] [4]: 54.5%
- Control effect of (ii) alone at corresponding dose [5]: 13.2%

Compound: CCOC(=O)c1cnn(C)c1S(=O)(=O)NC(=O)Nc1nc(OC)cc(OC)n1 [Pyrazosulfuron-ethyl]
- Control effect of (ii) alone at corresponding dose [6]: 75.6%
- pest or weed control at 9 g/ha (Pontederia vaginalis, 480 h, Monochoria vaginalis, (ii) 0.6 g a.i./mu, read-out: Control effect of (ii) alone at corresponding dose): 54.5%
- pest or weed control at 15 g/ha [7]: 75.6%

Compound: Nc1c(Cl)c(F)nc(OCC(=O)O)c1Cl [Fluroxypyr]
- Control effect of (ii) alone at corresponding dose [1]: 60.3%
- pest or weed control at 45 g/ha (Pontederia vaginalis, 480 h, Monochoria vaginalis, (ii) 3 g a.i./mu, stem-leaf treatment, read-out: Control effect of (ii) alone at corresponding dose): 60.3%
- pest or weed control at 60 g/ha (Pontederia vaginalis, 480 h, Monochoria vaginalis, (ii) 4 g a.i./mu, read-out: Control effect of (ii) alone at corresponding dose): 70.4%
- pest or weed control at 75 g/ha (Pontederia vaginalis, 480 h, Monochoria vaginalis, (ii) 5 g a.i./mu, stem-leaf treatment, read-out: Control effect of (ii) alone at corresponding dose): 73.4%

Compound: CCCCCCCC(=O)Oc1c(Br)cc(C#N)cc1Br [Bromoxynil octanoate]
- pest or weed control at 9 g/ha (480 h, Sagittaria trifolia L., (ii) 0.6 g a.i./mu, read-out: Control effect of (ii) alone at corresponding dose): 6.4%
- pest or weed control at 45 g/ha (480 h, Sagittaria trifolia, (ii) 3 g a.i./mu, stem-leaf treatment, read-out: Control effect of (ii) alone at corresponding dose): 12.5%
- Control effect of (ii) alone at corresponding dose (Sagittaria trifolia L., (ii) 3 g a.i./mu): 12.5%

Compound: CCNc1nc(NCC)nc(SC)n1 [Simetryn]
- pest or weed control at 9 g/ha [8]: 20.8%
- pest or weed control at […] [9]: 45.3%
- Control effect of (ii) alone at corresponding dose [10]: 20.8%
- Control effect of (ii) alone at corresponding dose [11]: 45.3%

Compound: CSc1nnc(C(C)(C)C)c(=O)n1N [Metribuzin]
- pest or weed control at 9 g/ha (480 h, Echinochloa phyllopogon, (ii) 0.6 g a.i./mu, read-out: Control effect of (ii) alone at corresponding dose): 9.1%
- pest or weed control at 45 g/ha [3]: 32.3%
- Control effect of (ii) alone at corresponding dose [5]: 32.3%

Compound: CCCCOC(=O)[C@@H](C)Oc1ccc(Oc2ccc(C#N)cc2F)cc1 [Cyhalofop-butyl]
- pest or weed control at 45 g/ha [3]: 12.2%
- pest or weed control at […] [4]: 45.1%
- Control effect of (ii) alone at corresponding dose [5]: 12.2%

Compound: CC(C)=C1OC(=O)N(c2cc(OC3CCCC3)c(Cl)cc2F)C1=O [Pentoxazone]
- Control effect of (ii) alone at corresponding dose (Monochoria vaginalis, (ii) 10 g a.i./mu): 43.6%
- pest or weed control at […] (Pontederia vaginalis, 480 h, Monochoria vaginalis, (ii) 0.5 g a.i./mu, read-out: Control effect of (ii) alone at corresponding dose): 6.4%
- pest or weed control at 150 g/ha (Pontederia vaginalis, 480 h, Monochoria vaginalis, (ii) 10 g a.i./mu, stem-leaf treatment, read-out: Control effect of (ii) alone at corresponding dose): 43.6%

Compound: CCCOCCN(C(=O)CCl)c1c(CC)cccc1CC [Pretilachlor]
- pest or weed control at 45 g/ha [3]: 15.2%
- pest or weed control at […] [9]: 43.2%
- Control effect of (ii) alone at corresponding dose [5]: 15.2%
- Control effect of (ii) alone at corresponding dose [11]: 43.2%

Compound: CCC(C)n1c(=O)[nH]c(C)c(Br)c1=O (stereo not shown) [Bromacil]
- pest or weed control at 45 g/ha [3]: 12.8%
- pest or weed control at 450 g/ha (480 h, Echinochloa phyllopogon, read-out: Control effect of (ii) alone at corresponding dose): 59.7%
- Control effect of (ii) alone at corresponding dose [5]: 12.8%

Compound: Cc1nn(C)cc1C(=O)Oc1c(C(=O)c2ccc(C(F)(F)F)cc2S(C)(=O)=O)c(C)nn1C [Shuangzuocaotong]
- Control effect of (ii) alone at corresponding dose (Digitaria sanguinalis, (ii) 8 g a.i./mu, stem-leaf treatment): 75.1%
- Control effect of (ii) alone at corresponding dose [10]: 7.8%
- Control effect of (ii) alone at corresponding dose (Echinochloa phyllopogon, (ii) 0.6 g a.i./mu, stem-leaf treatment): 7.8%
- Control effect of (ii) alone at corresponding dose (Echinochloa phyllopogon, (ii) 8 g a.i./mu): 70.9%
- Control effect of (ii) alone at corresponding dose (Echinochloa phyllopogon, (ii) 8 g a.i./mu, stem-leaf treatment): 70.9%

Compound: Cc1ccc(NC(=O)N(C)C)cc1Cl [Chlortoluron]
- pest or weed control at 9 g/ha [8]: 18.3%
- pest or weed control at […] [9]: 57.6%
- Control effect of (ii) alone at corresponding dose [10]: 18.3%
- Control effect of (ii) alone at corresponding dose [11]: 57.6%

Compound: CS(=O)(=O)c1ccc(C(=O)C2C(=O)CCCC2=O)c([N+](=O)[O-])c1 [Mesotrione]
- pest or weed control at 9 g/ha (480 h, Cyperus difformis, (ii) 0.6 g a.i./mu, read-out: Control effect of (ii) alone at corresponding dose): 29.5%
- pest or weed control at 15 g/ha (480 h, Cyperus difformis, (ii) 1 g a.i./mu, stem-leaf treatment, read-out: Control effect of (ii) alone at corresponding dose): 50.4%
- Control effect of (ii) alone at corresponding dose [12]: 50.4%

Compound: CS(=O)(=O)c1ccc(C(=O)C2C(=O)CCCC2=O)c(Cl)c1COCC1CCCO1 (stereo not shown) [Tefuryltrione]
- Control effect of (ii) alone at corresponding dose [12]: 37.4%
- Control effect of (ii) alone at corresponding dose (Cyperus difformis, (ii) 1 g a.i./mu, stem-leaf treatment): 37.4%
- Control effect of (ii) alone at corresponding dose (Cyperus difformis, (ii) 1.8 g a.i./mu): 63.2%

Compound: O=C(O)CCCOc1ccc(Cl)cc1Cl [2,4-D butyric acid]
- Control effect of (ii) alone at corresponding dose [1]: 23.5%
- Control effect of (ii) alone at corresponding dose [2]: 23.5%
- Control effect of (ii) alone at corresponding dose (Monochoria vaginalis, (ii) 15 g a.i./mu): 65.3%
- Control effect of (ii) alone at corresponding dose (Monochoria vaginalis, (ii) 15 g a.i./mu, stem-leaf treatment): 65.3%

Compound: C#CCN(C)c1c(C#N)cnn1-c1nn2c(c1Cl)CCCC2 [Pyraclonil]
- Control effect of (ii) alone at corresponding dose (Sagittaria trifolia L., (ii) 0.6 g a.i./mu): 9.3%
- Control effect of (ii) alone at corresponding dose (Sagittaria trifolia L., (ii) 15 g a.i./mu): 72.5%
- Control effect of (ii) alone at corresponding dose (Sagittaria trifolia, (ii) 15 g a.i./mu, stem-leaf treatment): 72.5%

Compound: CCc1cccc(C)c1N(C(=O)CCl)C(C)COC (stereo not shown) [Metolachlor]
- pest or weed control at 45 g/ha (480 h, Digitaria sanguinalis, (ii) 3 g a.i./mu, stem-leaf treatment, read-out: Control effect of (ii) alone at corresponding dose): 15.3%
- pest or weed control at 45 g/ha [3]: 7.8%
- pest or weed control at […] [4]: 15.3%
- Control effect of (ii) alone at corresponding dose [5]: 7.8%

Compound: CCC(C)Nc1c([N+](=O)[O-])cc(C(C)(C)C)cc1[N+](=O)[O-] (stereo not shown) [Butralin]
- pest or weed control at 45 g/ha (480 h, Cyperus difformis, (ii) 3 g a.i./mu, stem-leaf treatment, read-out: Control effect of (ii) alone at corresponding dose): 16.4%
- pest or weed control at 450 g/ha (480 h, Cyperus difformis, read-out: Control effect of (ii) alone at corresponding dose): 46.8%
- Control effect of (ii) alone at corresponding dose (Cyperus difformis, (ii) 3 g a.i./mu): 16.4%

Compound: CS(=O)(=O)c1ccc(C(=O)C2=C(Sc3ccccc3)C3CCC(C3)C2=O)c(Cl)c1 (stereo not shown) [Benzobicylon]
- Control effect of (ii) alone at corresponding dose [13]: 26.8%
- Control effect of (ii) alone at corresponding dose (Leptochloa chinensis, (ii) 3 g a.i./mu, stem-leaf treatment): 26.8%
- Control effect of (ii) alone at corresponding dose (Leptochloa chinensis, (ii) 15 g a.i./mu): 68.2%
- Control effect of (ii) alone at corresponding dose (Leptochloa chinensis, (ii) 15 g a.i./mu, stem-leaf treatment): 68.2%

Compound: COP(=S)(OC)SCC(=O)N(c1ccc(Cl)cc1)C(C)(C)C [Anilofos]
- pest or weed control at 45 g/ha (Dinebra chinensis, 480 h, Leptochloa chinensis, (ii) 3 g a.i./mu, stem-leaf treatment, read-out: Control effect of (ii) alone at corresponding dose): 30.8%
- pest or weed control at 450 g/ha (Dinebra chinensis, 480 h, Leptochloa chinensis, read-out: Control effect of (ii) alone at corresponding dose): 62.6%
- Control effect of (ii) alone at corresponding dose [13]: 30.8%

Compound: CCC(Oc1ccc(F)c(C(F)(F)F)c1)C(=O)NCc1ccccc1 (stereo not shown) [Beflubutamid]
- Control effect of (ii) alone at corresponding dose (Monochoria vaginalis, (ii) 1.5 g a.i./mu): 15.3%
- Control effect of (ii) alone at corresponding dose (Monochoria vaginalis, (ii) 5 g a.i./mu): 40.3%
- Control effect of (ii) alone at corresponding dose (Monochoria vaginalis, (ii) 5 g a.i./mu, stem-leaf treatment): 40.3%

Compound: COc1nc(OC)nc(C(=O)c2cccc(F)c2N(C)S(=O)(=O)C(F)F)n1 [Triafamone]
- Control effect of (ii) alone at corresponding dose (Monochoria vaginalis, (ii) 0.5 g a.i./mu): 16.3%
- Control effect of (ii) alone at corresponding dose (Monochoria vaginalis, (ii) 0.5 g a.i./mu, stem-leaf treatment): 16.3%
- Control effect of (ii) alone at corresponding dose [6]: 29.6%
- Control effect of (ii) alone at corresponding dose (Monochoria vaginalis, (ii) 1 g a.i./mu, stem-leaf treatment): 29.6%

Compound: Cc1cc(Cl)ccc1OCC(=O)O [MCPA]
- Control effect of (ii) alone at corresponding dose [1]: 28.2%
- Control effect of (ii) alone at corresponding dose [2]: 28.2%

Compound: O=C(O)c1nc(Cl)ccc1Cl [Clopyralid]
- Control effect of (ii) alone at corresponding dose [6]: 49.6%
- pest or weed control at 15 g/ha [7]: 49.6%
- pest or weed control at 18 g/ha (Pontederia vaginalis, 480 h, Monochoria vaginalis, (ii) 1.2 g a.i./mu, read-out: Control effect of (ii) alone at corresponding dose): 56.3%

Compound: CC(C)Oc1cc(-n2nc(C(C)(C)C)oc2=O)c(Cl)cc1Cl [Oxadiazon]
- pest or weed control at 45 g/ha [3]: 14.3%
- pest or weed control at […] [9]: 41.3%
- Control effect of (ii) alone at corresponding dose [5]: 14.3%
- Control effect of (ii) alone at corresponding dose [11]: 41.3%
